A short description of assay [1]: Inhibitory activity against P-selectin using cell-cell assay.
A short description of assay [2]: Inhibitory activity against Selectin E using cell-cell assay.

Each structure is given as a SMILES string.

With `CCCCCCCCCCCCNC(=O)C=Cc1ccc(-c2[nH]c(-c3ccc(-c4cc(C(=O)O)on4)cc3)nc2-c2ccc(C=CC(=O)O)cc2)cc1` [3-(4-{4-[4-(2-Carboxy-vinyl)-phenyl]-5-[4-(2-dodecylcarbamoyl-vinyl)-phenyl]-1H-imidazol-2-yl}-phenyl)-isoxazole-5-carboxylic acid], in assay [1], the half-maximal inhibitory concentration (IC50) (commonly the concentration that inhibits the measured activity by half) was 500 µM.

As for `CCCCCCCCCCCCCCCCNC(=O)C=Cc1ccc(-c2[nH]c(-c3ccc(C4=NOC(C(=O)O)C4)cc3)nc2-c2ccc(C=CC(=O)O)cc2)cc1` (stereo not drawn) [3-(4-{4-[4-(2-Carboxy-vinyl)-phenyl]-5-[4-(2-hexadecylcarbamoyl-vinyl)-phenyl]-1H-imidazol-2-yl}-phenyl)-4,5-dihydro-isoxazole-5-carboxylic acid], the half-maximal inhibitory concentration (IC50) in assay [1] is 14 µM; in assay [2], 30 µM.

For `CCCCCCCCCCCCCCCCNC(=O)C=Cc1ccc(-c2[nH]c(-c3ccc(-c4cc(C(=O)O)on4)cc3)nc2-c2ccc(C=CC(=O)O)cc2)cc1` [3-(4-{4-[4-(2-Carboxy-vinyl)-phenyl]-5-[4-(2-hexadecylcarbamoyl-vinyl)-phenyl]-1H-imidazol-2-yl}-phenyl)-isoxazole-5-carboxylic acid], the values for the concentration for half-maximal inhibition (IC50) in assay [1] and in assay [2] were 8 µM and 20 µM, respectively.

Regarding `CCCCCCCCCCCCCCCCNC(=O)C=Cc1ccc(-c2[nH]cnc2-c2ccc(C=CC(=O)O)cc2)cc1` [3-(4-{5-[4-(2-Hexadecylcarbamoyl-vinyl)-phenyl]-1H-imidazol-4-yl}-phenyl)-acrylic acid], the values for the IC50 in assay [1] and in assay [2] were 98 µM and above 100 µM, respectively.

The molecule `O=C(O)C=Cc1ccc(-c2nc(-c3ccc(C4=NOC(C(=O)O)C4)cc3)c(-c3ccc(C=CC(=O)NCCCc4ccccc4)cc3)[nH]2)cc1` (stereo not drawn) [3-[4-(2-[4-(2-Carboxy-vinyl)-phenyl]-5-{4-[2-(3-phenyl-propylcarbamoyl)-vinyl]-phenyl}-1H-imidazol-4-yl)-phenyl]-4,5-dihydro-isoxazole-5-carboxylic acid] registered an IC50 in assay [1] of 123 µM.

Values taken from BindingDB's records for doi:10.1021/jm000508c (Ontogen, 2001).
